Laboratory results as given in patent US8426345B2, “Method of drug design” (Alchemia Limited, priority 2005, dated 2013).

Molecular target: T1, Human SST5 somatostatin receptor (Homo sapiens, UniProt P35346)
T1 construct: expressed in transfected cells; host or cells: HEK-293 EBNA cells (membranes)
Test: Filter plate radio-ligand binding assay for SST5 receptor ([125I]SST-14 displacement)
Settings: 2P library; for % SST5 radio-ligand binding displaced at conc 50: compound conc 50 μM; for % SST5 radio-ligand binding displaced at conc 250: compound conc 250 μM; for % SST5 radio-ligand binding displaced at conc 500: compound conc 500 μM

T1 sequence (P35346 whole entry): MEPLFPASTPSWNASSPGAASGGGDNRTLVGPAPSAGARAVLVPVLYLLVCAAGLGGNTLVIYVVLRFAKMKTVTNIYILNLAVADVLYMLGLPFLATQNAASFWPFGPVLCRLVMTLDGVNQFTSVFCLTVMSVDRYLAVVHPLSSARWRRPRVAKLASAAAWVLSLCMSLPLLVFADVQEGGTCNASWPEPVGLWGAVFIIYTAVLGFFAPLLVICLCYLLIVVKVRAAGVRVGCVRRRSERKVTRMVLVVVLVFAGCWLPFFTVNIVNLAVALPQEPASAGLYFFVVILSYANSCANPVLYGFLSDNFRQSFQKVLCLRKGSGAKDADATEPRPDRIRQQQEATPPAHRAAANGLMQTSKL

| SMILES | % SST5 radio-ligand binding displaced at conc 50 | % SST5 radio-ligand binding displaced at conc 250 | % SST5 radio-ligand binding displaced at conc 500 |
| --- | --- | --- | --- |
| COC[C@H]1O[C@@H](OCc2ccc(Cl)cc2)[C@H](NC(=O)CCCN)[C@@H](OC)[C@@H]1O [Compound 27] | − (% SST5 radio-ligand binding displaced at cone (μM) −<40%) | − (% SST5 radio-ligand binding displaced at cone (μM) −<40%) | − (% SST5 radio-ligand binding displaced at cone (μM) −<40%) |
| COC[C@H]1O[C@@H](OCc2ccc3ccccc3c2)[C@H](NC(=O)CCCN)[C@@H](OC)[C@@H]1O [Compound 28] | − (% SST5 radio-ligand binding displaced at cone (μM) −<40%) | − (% SST5 radio-ligand binding displaced at cone (μM) −<40%) | ++ (% SST5 radio-ligand binding displaced at conc (μM) >60%) |
| COC1C(O)C(COCc2ccc(Cl)cc2)OC(SC)C1NC(=O)CN (stereo not drawn) [Compound 29] | − (% SST5 radio-ligand binding displaced at cone (μM) −<40%) | − (% SST5 radio-ligand binding displaced at cone (μM) −<40%) | − (% SST5 radio-ligand binding displaced at cone (μM) −<40%) |
| COC1C(O)C(COCc2ccc3ccccc3c2)OC(SC)C1NC(=O)CN (stereo not drawn) [Compound 30] | − (% SST5 radio-ligand binding displaced at cone (μM) −<40%) | − (% SST5 radio-ligand binding displaced at cone (μM) −<40%) | + (% SST5 radio-ligand binding displaced at cone (μM) 60>+>40%) |
| COCC1OC(SC)C(NC(=O)CN)C(OCc2ccc(Cl)cc2)C1O (stereo not drawn) [Compound 31] | − (% SST5 radio-ligand binding displaced at cone (μM) −<40%) | − (% SST5 radio-ligand binding displaced at cone (μM) −<40%) | + (% SST5 radio-ligand binding displaced at cone (μM) 60>+>40%) |
| COCC1OC(SC)C(NC(=O)CN)C(OCc2ccc3ccccc3c2)C1O (stereo not drawn) [Compound 32] | − (% SST5 radio-ligand binding displaced at cone (μM) −<40%) | − (% SST5 radio-ligand binding displaced at cone (μM) −<40%) | − (% SST5 radio-ligand binding displaced at cone (μM) −<40%) |
| COC[C@H]1O[C@H](OCc2ccc(Cl)cc2)[C@H](NC(=O)CN)[C@H](OC)[C@@H]1O [Compound 33] | − (% SST5 radio-ligand binding displaced at cone (μM) −<40%) | − (% SST5 radio-ligand binding displaced at cone (μM) −<40%) | − (% SST5 radio-ligand binding displaced at cone (μM) −<40%) |
| COC[C@H]1O[C@H](OCc2ccc3ccccc3c2)[C@H](NC(=O)CN)[C@H](OC)[C@@H]1O [Compound 34] | − (% SST5 radio-ligand binding displaced at cone (μM) −<40%) | − (% SST5 radio-ligand binding displaced at cone (μM) −<40%) | − (% SST5 radio-ligand binding displaced at cone (μM) −<40%) |
| COC[C@H]1O[C@@H](OCc2ccc(Cl)cc2)[C@H](NC(=O)CN)[C@H](OC)[C@@H]1O [Compound 35] | − (% SST5 radio-ligand binding displaced at cone (μM) −<40%) | − (% SST5 radio-ligand binding displaced at cone (μM) −<40%) | − (% SST5 radio-ligand binding displaced at cone (μM) −<40%) |
| COC[C@H]1O[C@@H](OCc2ccc3ccccc3c2)[C@H](NC(=O)CN)[C@H](OC)[C@@H]1O [Compound 36] | − (% SST5 radio-ligand binding displaced at cone (μM) −<40%) | − (% SST5 radio-ligand binding displaced at cone (μM) −<40%) | + (% SST5 radio-ligand binding displaced at cone (μM) 60>+>40%) |
